Reference: PubChem BioAssay (NCI)
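Method: 48-hour compound exposure of cells in 96-well plates, five concentrations, linear interpolation of endpoints. At the GI50, growth is halved. TGI is the concentration that stops growth completely.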

How the values were obtained:
Assay in all cases: DTP human tumour cell line panel, 48 h
UO-31 renal = system: UO-31 renal
SW-620 colon = system: SW-620 colon
CCRF-CEM leukemia = system: CCRF-CEM leukemia
HCT-116 colon = system: HCT-116 colon
NCI-H522 lung = system: NCI-H522 lung
DLD-1 colon = system: DLD-1 colon
DMS 273 small cell lung = system: DMS 273 small cell lung
KM20L2 colon = system: KM20L2 colon
CAKI-1 renal = system: CAKI-1 renal
DMS 114 small cell lung = system: DMS 114 small cell lung
MCF7 breast = system: MCF7 breast
T-47D breast = system: T-47D breast

Structure (SMILES)	TGI (UO-31 renal) [µM]	TGI (SW-620 colon) [µM]	TGI (CCRF-CEM leukemia) [µM]	TGI (HCT-116 colon) [µM]	TGI (NCI-H522 lung) [µM]	TGI (DLD-1 colon) [µM]	TGI (DMS 273 small cell lung) [µM]	TGI (KM20L2 colon) [µM]	TGI (CAKI-1 renal) [µM]	TGI (DMS 114 small cell lung) [µM]	TGI (MCF7 breast) [µM]	TGI (T-47D breast) [µM]	GI50 (NCI-H522 lung) [µM]	GI50 (UO-31 renal) [µM]	GI50 (SW-620 colon) [µM]	GI50 (MCF7 breast) [µM]	GI50 (CCRF-CEM leukemia) [µM]	GI50 (HCT-116 colon) [µM]	GI50 (T-47D breast) [µM]	GI50 (CAKI-1 renal) [µM]
CN(C)CCn1c2ccccc2c2nc3cc4ccccc4cc3nc21	18.1	17.4	14.7	16.9	21.7	16.5	14.6	15.6	20	20.7										
Cc1ccc(C(=O)C(C)N)cc1 (configuration not stated)	> 100	> 100	> 100	> 100	> 100	> 100	> 100	> 100	> 100	> 100										
CC(=O)OCC1OC(n2c(N)c(C#N)c(-c3ccccc3)c(C#N)c2=S)C(OC(C)=O)C(OC(C)=O)C1OC(C)=O (configuration not stated)	> 100	> 100	> 100	> 100	> 100				> 100		> 100	> 100								
O=C(Oc1ccccc1)c1cc2cc(CCl)ccc2oc1=O	68.1	> 100	> 100	> 100	24.6				29.8		> 100	38.7								
O=C1C2C=CC1C1C(=O)OC(=O)C21 (configuration not stated)	> 100	> 100	> 100	> 100	> 100				> 100		> 100	> 100								
CC(C)CCC1(O)O[C@H]2C[C@H]3[C@@H]4CCC5CC(=O)C=C[C@]5(C)[C@H]4CC[C@]3(C)[C@H]2[C@@H]1C (some centres not stated)	30.3	26.4	10.3	19.3	3.8				28.1		20.3	25.6								
O=C(O)CSCC(=O)Nc1ccc2cccc3c2c1CC3	> 100	> 100	> 100	> 100	> 100				> 100		> 100	> 100								
CC(=O)OC12c3ccccc3C1CCCCCC21OCCCO1 (configuration not stated)	> 100		> 100	> 100	> 100	> 100	> 100	> 100	> 100	> 100										
N=C(N)SCCc1cn2ccccc2n1	> 100	> 100	> 100	> 100	> 100	> 100	> 100		> 100	> 100										
O=C1OC(c2ccc(O)c(Cl)c2)(c2ccc(O)c(Cl)c2)c2ccc(Br)c3cccc1c23 (tested in a mixture with another compound)	33.4	41.1	42.3	36.3	35.7				29.2		30.6	13.3	17.8							
COC(=O)C(CCC1C=CCC1)N=Cc1ccccc1 (configuration not stated)	> 100	> 100	> 100	> 100	> 100				> 100		> 100	> 100								
CC(=O)Oc1ccc2c(c1)c1c(=O)oc(N(C)C)nc1n2Cc1ccccc1	> 81.8	> 100	> 100	> 100	> 100				> 73.3		> 100	> 92.9								
COC(OC)c1cccc2c1C1(O)CCC3(CC21)OCCCCO3 (configuration not stated)	> 100		> 100	> 100	> 100	> 100	> 100	> 100	> 100	> 100										
COc1cc(-c2[nH]ccc2Cl)oc1C1=C2N=C3C=C2C(C(C)C)C1CCCCCCCC3 (configuration not stated)	2.55	1.5	1.74	0.992	1.58	2.6	1.48	1.48	5.27	1.87										
CC(C)OP(=O)(CN(C)/C(F)=N\C(F)(F)F)OC(C)C	> 100	> 100	> 100	> 100	> 100				> 100		> 100	> 100								
O=C(N/N=C1\CCc2ccccc2C1)N/N=C1\CCc2ccccc2C1	> 10	> 10	> 10	> 10	> 10				> 10		> 10	> 10								
CN1C(c2ccccc2)=CC(=O)C(O)=C(c2ccccc2)S1(=O)=O	> 100	> 100	> 100	> 100	> 100				> 100		> 100	> 100								
C1COC(NC(C2CC2)C2CC2)=N1	> 100	> 100	> 100	> 100	> 100				> 100		> 100	> 100								
NC1CC(=O)c2csc(Br)c21 (configuration not stated)	30.7	24.8	> 100	> 44.2	8.21				27.5		68	> 59.3								
Nc1nc(Cl)cc(NCC2(CO)CCC(Cc3ccccc3)C2)n1 (configuration not stated)	> 92.6	> 100	75.4	> 100	49				95.6		71	> 70.3								
CC(=O)[O-].CC(=O)[O-].O=C(N/N=C/c1cc(Cl)cc(Cl)c1[OH2+])c1ccncc1.[Co+2]	> 100	> 100	> 100	> 100	> 100			> 100												
CC(=O)Nc1ccc(CNc2cc(=O)[nH]c(=O)[nH]2)cc1	> 100	> 100	> 100	> 100	> 100				> 100		> 100	> 100								
OCCN(CCO)c1ccc2c(C(F)(F)F)cc(C(F)(F)F)nc2n1	> 100	> 100	> 100	> 100	> 100				> 100		> 100	> 100								
O=C1OCC(C#Cc2ccccc2)=C1Cl	> 100	5.07	18.1	1.38	14.7				26.7		> 100	30.3	3.08	2.15	0.83	1.71	0.222	0.322	12.6	3.27
O=C(c1cc(Cl)cc(Cl)c1)N(C(=S)OC12CC3CC(CC(C3)C1)C2)c1ccccc1	82.8	> 100	49.9	> 100	62.3				> 100		> 100	> 100								
CC(=O)C1=C(N=[N+]=[N-])c2cccc3cccc(c23)C1=O	29.7	55.1	25.6	30.8	29.3				30.7		64.6	41.2								
CC(NS(C)(=O)=O)c1ccccc1 (configuration not stated)	> 100	> 100	> 100	> 100	> 100				> 100		> 100	> 100								
